Experimental data taken from patent publication US20260215425A1, “NITRIFICATION INHIBITORS” (The University of Melbourne, priority 2022, published 2026).

System: N. europaea
Assay: O2 consumption measurements
Assay type: cell-based
Details: [NH4+] 3 mM, 20° C.
Procedure: O2 consumption rates of cell suspensions of N. europaea were measured using a Clark-type oxygen electrode (Rank Brothers, Cambridge, UK) mounted in a water-jacketed electrode chamber (3 mL capacity) that was connected to a recirculating cooler (Lauda, Austria). The data were recorded using a Data-trax™ (World Precision Instruments, UK) sensor data collection system. All measurements were taken at 20° C. and 1 mL final reaction solution volume. The polarizing voltage was set to 0.6 V. To calibrate the oxygen signal, an excess (approximately 50 mg) of Na2S2O4 was added to 1 mL of Milli-Q water to chemically remove dissolved O2. […] The voltage at saturated O2 concentration (“100% O2”) was determined by measuring the voltage of the equilibrated aerated reaction system consisting of 1 mL Milli-Q water. Sample measurements were taken as follows: The 1 mL reaction mixture, composed of 980 μL N. europaea cell solution in NaPB (OD600=0.8; corresponding to approximately 468 μg/L protein) was equilibrated for 5 min in the chamber until the voltage reading was stable. […] After 4 min of oxygen consumption (a linear rate coefficient of approximately kobs=k=274.7+20.0 nmol O2 L^−1 s^−1 was determined), 10 μL of the inhibitor stock solution of MPT in DMSO (1.2 mM and 0.6 mM) were added via a 10-μL Eppendorf pipette through a capillary opening, ensuring the emergence of the pipette tip in the solution. […]

For `C#CCn1cc(C)nn1` [Compound 4-MPT, 4-Methyl-1-(prop-2-yn-1yl)-1H-1,2,3-triazole], the “observed rate coefficient kobs for the O2 consumption” value ([MPT]=0.6 mM) was 0.0027 s⁻¹ and the “observed rate coefficient kobs for the O2 consumption” value ([MPT]=1.2 mM) was 0.0045 s⁻¹.
